Data: PubChem BioAssay AID2060612 (Molecular Pharmacology Branch, DTP, NCI, 2025)

System: 565232-114-T-J1-PDC complex spheroid viability
Test: Anticancer human tumor 565232-114-T-J1-PDC patient-derived bladder carcinoma cell line growth inhibition [CLK]
Details: for IC50: curve of first compound; for viability, T/C: stronger effect = lower value
Procedure, shortened: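 Patient-derived tumor cells grown as complex spheroids with HUVEC endothelial cells and mesenchymal stem cells, treated with drug combinations. Concentrations descend in half-log steps from near clinical Cmax, or from 10 microM if Cmax unknown.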

[1] = second compound 0.0316 µM, first compound 0.0316 µM
[2] = second compound 0.0316 µM, first compound 0.1 µM
[3] = second compound 0.0316 µM, first compound 0.316 µM
[4] = second compound 0.0316 µM, first compound 1 µM
[5] = second compound 0.0316 µM, first compound 3.16 µM
[6] = second compound 0.0316 µM, first compound 10 µM
[7] = second compound 0.1 µM, first compound 0.0316 µM
[8] = second compound 0.1 µM, first compound 0.1 µM
[9] = second compound 0.1 µM, first compound 0.316 µM
[10] = second compound 0.1 µM, first compound 1 µM
[11] = second compound 0.1 µM, first compound 3.16 µM
[12] = second compound 0.1 µM, first compound 10 µM
[13] = second compound 0.316 µM, first compound 0.0316 µM
[14] = second compound 0.316 µM, first compound 0.1 µM
[15] = second compound 0.316 µM, first compound 0.316 µM
[16] = second compound 0.316 µM, first compound 1 µM
[17] = second compound 0.316 µM, first compound 3.16 µM
[18] = second compound 0.316 µM, first compound 10 µM
[19] = second compound 1 µM, first compound 0.0316 µM
[20] = second compound 1 µM, first compound 0.1 µM
[21] = second compound 1 µM, first compound 0.316 µM
[22] = second compound 1 µM, first compound 1 µM
[23] = second compound 1 µM, first compound 3.16 µM
[24] = second compound 1 µM, first compound 10 µM
[25] = second compound 3.16 µM, first compound 0.0316 µM
[26] = second compound 3.16 µM, first compound 0.1 µM
[27] = second compound 3.16 µM, first compound 0.316 µM
[28] = second compound 3.16 µM, first compound 1 µM
[29] = second compound 3.16 µM, first compound 3.16 µM
[30] = second compound 3.16 µM, first compound 10 µM
[31] = second compound 10 µM, first compound 0.0316 µM
[32] = second compound 10 µM, first compound 0.1 µM
[33] = second compound 10 µM, first compound 0.316 µM
[34] = second compound 10 µM, first compound 1 µM
[35] = second compound 10 µM, first compound 3.16 µM
[36] = second compound 10 µM, first compound 10 µM
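Further: spheroids exposed to compounds for 7 days before readout.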
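Wherever viability, T/C is given: 100% = DMSO vehicle wells with luminescence normalized to vehicle control.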

For `CC(C)CC(NC(=O)C(Cc1ccccc1)NC(=O)c1cnccn1)B(O)O` (stereo unspecified) + CNC(=O)c1ccc(Nc2nc(OC3CCCC3)c3c(-c4ccc5nc(C)oc5c4)c[nH]c3n2)c(OC)c1, the IC50 (second compound 0.0316 µM) was 4.66 nM, the IC50 (second compound 0.1 µM) was 1.01 nM and the IC50 (second compound 0.316 µM) was under 0.949 nM. For the same molecule, the IC50 (second compound 1 µM) was under 0.949 nM, the IC50 (second compound 3.16 µM) was under 0.949 nM and the IC50 (second compound 10 µM) was under 0.949 nM. The viability, T/C (second compound 0.0316 µM, first compound 0.000949 µM) was 81%, the viability, T/C (second compound 0.0316 µM, first compound 0.003 µM) was 80.1% and the viability, T/C (second compound 0.0316 µM, first compound 0.00949 µM) was 1.47%. The viability, T/C (second compound 0.0316 µM, first compound 0.03 µM) was 0.95%, the viability, T/C (second compound 0.0316 µM, first compound 0.0949 µM) was 0.67% and the viability, T/C (second compound 0.0316 µM, first compound 0.3 µM) was 1.42%. The viability, T/C (second compound 0.1 µM, first compound 0.000949 µM) was 50.7%, the viability, T/C (second compound 0.1 µM, first compound 0.003 µM) was 42.4% and the viability, T/C (second compound 0.1 µM, first compound 0.00949 µM) was 1.02%. For the same molecule, the viability, T/C (second compound 0.1 µM, first compound 0.03 µM) was 0.74%, the viability, T/C (second compound 0.1 µM, first compound 0.0949 µM) was 0.79% and the viability, T/C (second compound 0.1 µM, first compound 0.3 µM) was 0.53%. For the same molecule, the viability, T/C (second compound 0.316 µM, first compound 0.000949 µM) was 31.1%, the viability, T/C (second compound 0.316 µM, first compound 0.003 µM) was 24.6% and the viability, T/C (second compound 0.316 µM, first compound 0.00949 µM) was 0.97%. For the same molecule, the viability, T/C (second compound 0.316 µM, first compound 0.03 µM) was 0.75%, the viability, T/C (second compound 0.316 µM, first compound 0.0949 µM) was 3.5% and the viability, T/C (second compound 0.316 µM, first compound 0.3 µM) was 0.65%. The viability, T/C (second compound 1 µM, first compound 0.000949 µM) was 22.1%, the viability, T/C (second compound 1 µM, first compound 0.003 µM) was 23.1% and the viability, T/C (second compound 1 µM, first compound 0.00949 µM) was 0.93%. It also gave a viability, T/C (second compound 1 µM, first compound 0.03 µM) of 0.66%, a viability, T/C (second compound 1 µM, first compound 0.0949 µM) of 0.67% and a viability, T/C (second compound 1 µM, first compound 0.3 µM) of 1.42%. It also gave a viability, T/C (second compound 3.16 µM, first compound 0.000949 µM) of 19.6%, a viability, T/C (second compound 3.16 µM, first compound 0.003 µM) of 12.3% and a viability, T/C (second compound 3.16 µM, first compound 0.00949 µM) of 0.72%. It also gave a viability, T/C (second compound 3.16 µM, first compound 0.03 µM) of 1.66%, a viability, T/C (second compound 3.16 µM, first compound 0.0949 µM) of 0.65% and a viability, T/C (second compound 3.16 µM, first compound 0.3 µM) of 1.37%. It also gave a viability, T/C (second compound 10 µM, first compound 0.000949 µM) of 19.5%, a viability, T/C (second compound 10 µM, first compound 0.003 µM) of 10.6% and a viability, T/C (second compound 10 µM, first compound 0.00949 µM) of 1.82%. The viability, T/C (second compound 10 µM, first compound 0.03 µM) was 0.61%, the viability, T/C (second compound 10 µM, first compound 0.0949 µM) was 0.51% and the viability, T/C (second compound 10 µM, first compound 0.3 µM) was 1.99%.
For `CC1COCCN1c1cc(C2(S(C)(=N)=O)CC2)nc(-c2ccnc3[nH]ccc23)n1` (stereo unspecified) + CNC(=O)c1ccc(Nc2nc(OC3CCCC3)c3c(-c4ccc5nc(C)oc5c4)c[nH]c3n2)c(OC)c1, the IC50 (second compound 0.0316 µM) was 6350 nM, the IC50 (second compound 0.1 µM) was 222 nM and the IC50 (second compound 0.316 µM) was under 31.6 nM. For the same molecule, the IC50 (second compound 1 µM) was under 31.6 nM, the IC50 (second compound 3.16 µM) was under 31.6 nM and the IC50 (second compound 10 µM) was under 31.6 nM. The viability, T/C [1] was 95.2%, the viability, T/C [2] was 85.1% and the viability, T/C [3] was 93.2%. It also gave a viability, T/C [4] of 79.4%, a viability, T/C [5] of 103% and a viability, T/C [6] of 23.2%. The viability, T/C [7] was 55.6%, the viability, T/C [8] was 57% and the viability, T/C [9] was 42%. For the same molecule, the viability, T/C [10] was 44.2%, the viability, T/C [11] was 30.2% and the viability, T/C [12] was 11.5%. The viability, T/C [13] was 31.4%, the viability, T/C [14] was 38.3% and the viability, T/C [15] was 35.7%. The viability, T/C [16] was 28.6%, the viability, T/C [17] was 22% and the viability, T/C [18] was 9.67%. For the same molecule, the viability, T/C [19] was 24.7%, the viability, T/C [20] was 25.2% and the viability, T/C [21] was 25.9%. For the same molecule, the viability, T/C [22] was 23.8%, the viability, T/C [23] was 11.1% and the viability, T/C [24] was 4.92%. It also gave a viability, T/C [25] of 19.1%, a viability, T/C [26] of 17.4% and a viability, T/C [27] of 17.4%. It also gave a viability, T/C [28] of 13.3%, a viability, T/C [29] of 11.2% and a viability, T/C [30] of 2.86%. For the same molecule, the viability, T/C [31] was 19%, the viability, T/C [32] was 21.1% and the viability, T/C [33] was 20.5%. For the same molecule, the viability, T/C [34] was 15.5%, the viability, T/C [35] was 6.6% and the viability, T/C [36] was 1.53%.
For `O=C(c1cc(Cc2n[nH]c(=O)c3ccccc23)ccc1F)N1CCN(C(=O)C2CC2)CC1` + CNC(=O)c1ccc(Nc2nc(OC3CCCC3)c3c(-c4ccc5nc(C)oc5c4)c[nH]c3n2)c(OC)c1, the IC50 (second compound 0.0316 µM) was over 10000 nM, the IC50 (second compound 0.1 µM) was 1500 nM and the IC50 (second compound 0.316 µM) was under 31.6 nM. It also gave an IC50 (second compound 1 µM) of under 31.6 nM, an IC50 (second compound 3.16 µM) of under 31.6 nM and an IC50 (second compound 10 µM) of under 31.6 nM. It also gave a viability, T/C [1] of 81.7%, a viability, T/C [2] of 85.9% and a viability, T/C [3] of 87.8%. It also gave a viability, T/C [4] of 82.8%, a viability, T/C [5] of 104% and a viability, T/C [6] of 64.8%. It also gave a viability, T/C [7] of 49%, a viability, T/C [8] of 52.6% and a viability, T/C [9] of 63.5%. The viability, T/C [10] was 48.8%, the viability, T/C [11] was 45.7% and the viability, T/C [12] was 34%. The viability, T/C [13] was 36.4%, the viability, T/C [14] was 40.3% and the viability, T/C [15] was 30.4%. The viability, T/C [16] was 32.4%, the viability, T/C [17] was 33.4% and the viability, T/C [18] was 30.2%. It also gave a viability, T/C [19] of 24%, a viability, T/C [20] of 26.8% and a viability, T/C [21] of 23.2%. For the same molecule, the viability, T/C [22] was 22.8%, the viability, T/C [23] was 27.1% and the viability, T/C [24] was 24.8%. It also gave a viability, T/C [25] of 22.5%, a viability, T/C [26] of 23.4% and a viability, T/C [27] of 21.3%. The viability, T/C [28] was 21.7%, the viability, T/C [29] was 22.4% and the viability, T/C [30] was 19.3%. The viability, T/C [31] was 23.2%, the viability, T/C [32] was 25.5% and the viability, T/C [33] was 16.5%. For the same molecule, the viability, T/C [34] was 22.3%, the viability, T/C [35] was 21% and the viability, T/C [36] was 18.2%.
